# Test results published in patent US10705094B2, “TNF receptor signaling modulator assay” (UCB Biopharma SRL, priority 2015, dated 2020).
# Tests used:
# [1] = molecular target: TNFα binding to TNF receptor (ECD-TNFR) (Homo sapiens, UniProt P01375); test: Biacore in-solution competition/enhancement assay, TNFα/compound mix over immobilised ECD-TNFR; details: Biacore A100/4000, 0.5-1 nM TNFα, highest concentration 20 μM; read-out: EC50 (compound induced enhanced binding of TNFα to TNF receptor)
# Experimental: For this purpose a Biacore A100/4000 was used. […] For example a typical assay may use 20 μ[…] solution of compound. […] Control compounds were tested every 10-15 cycles. […] Background subtraction binding curves were analysed using the BIAevaluation software following standard procedures. The EC50 data was determined using a four parameter logistic fit. […] The RU (resonance unit) value for TNFα in the absence of compound was subtracted from the curves so these now show only the increase in binding induced by the compounds. The progress curves plateau at higher RU values as the concentration of compound increases.
# TNFα [2] = molecular target: T1, TNFα (Homo sapiens, UniProt P01375); test: L929 murine fibrosarcoma cell-killing (neutralisation) assay; format: cell-based, mouse; set-up: host or cells: added to L929 murine fibrosarcoma cells (ECACC, 85011425); details: L929 cells; read-out: IC50 (inhibition of cell killing activity of human TNFα)
# Experimental: The L929 neutralisation assays were carried out using the protocol disclosed in Baarsch M J J et al (Immunol Methods 1991; 140: 15-22) and Galloway C J et al J (Immunol Methods 1991; 140: 37-43).
# Briefly, L929 cells (ECACC, 85011425) were cultured in culture medium consisting of RPMI 1640 (Gibco) containing 10% FCS (PAA), 2 mM glutamine (Gibco), 50 U/ml penicillin (Gibco) and 50 μg/ml streptomycin (Gibco). When they were subcultured, the cells were washed three times with 10 mL Dulbecco's phosphate-buffered saline without calcium and magnesium (Gibco) and 3 ml of trypsin-EDTA (Gibco) was then added for 2 minutes to remove the cells from the flask. Culture medium was added to neutralise the trypsin and the cells pipetted up and down to remove any clumps.
# The L929 cells were split 1/2 or 1/3 the day before use and cultured for a further 24 hours. The flasks were then trypsinised as above and 2×10^4 cells in 100 μl were added per well of a 96 well flat-bottomed plate (Becton Dickinson). The plates were cultured for 24 hours before the assay was set up.
# Serial dilutions were made from DMSO stocks of the compounds.
# The assay medium was the same as culture medium but also contained 1 μg/ml actinomycin D (Sigma). The medium was flicked off the plates and the assay samples plus TNFα, standards and controls were added in 100 μl volumes in duplicate. Plates were incubated for a further 16 hours and then 10 μl per well of a 5 mg/ml methylthiazoletetrazolium (MTT; Sigma) solution in culture medium was added for a further 4 hours. The reaction was stopped by the addition of 100 μl of solubilisation buffer containing 20% sodium dodecyl sulphate (SDS, BDH) dissolved in 50% dimethyl formamide (DMF; BDH) and 50% deionised water.
# After overnight incubation at 37° C. to allow the dye to dissolve, the plates were read on a Multiskan EX plate reader (Labsystem) at 570 nm with subtraction at 630 nm. Data were analysed using the Genesis software package.
# h-TNFα = h-TNFα (Homo sapiens, UniProt P01375); test: Monomer exchange in TNFα trimers by mass spectrometry, compound pre-incubated with human TNFα; format: binding; details: 18 hours; for off-rate from h-TNFα: 1:1 complex with h-TNFα mixed with m-TNFα; for cross species monomer subunit exchange: compound preincubated with h-TNFα, then m-TNFα added
# Experimental: Human and mouse homotrimers of TNFα (H3 and M3 respectively) were incubated together and aliquots of the solution monitored by mass spectrometry appearance of the cross species heterotrimers. The mass spectrometric analysis confirmed that monomer exchange between native TNFα trimers was able to occur in solution. The exchange rate was slow and was monitored over a course of 4 hours before full equilibration was achieved (data not shown). The mechanism is unknown, although is it unlikely to involve formation of the dimeric forms as none of these were observed. Monomer exchange is likely to be occurring between pure human and mouse trimers, the mixing of mouse and human trimers simply makes this exchange visible by mass spectrometry.
# In a second series of experiments an excess of the compound of formula (1) was incubated with Human TNFα, the excess compound of formula (1) was then removed. Mass Spectral analysis confirmed that a 1:1 complex had been formed between the compound of formula (1) and h-TNFα. Mouse TNFα was now added to this sample which was then subjected to mass spectral analysis over a number of hours. After 18 hours there was no observed change in the composition of the sample. […] In addition, there was no evidence of formation of the M3L species and no evidence of formation of the unligated H3 species.
# These two experiments were then repeated with the compound of formula (2) instead of the compound of formula (1). The results when the compound of formula (2) was pre-incubated with h-TNFα to give a 1:1 complex and then mixed with unligated m-TNFα were the same as with the compound of formula (1).
# TNFα [3] = molecular target: T1, TNFα; test: Fluorescence polarization assay, competition with the compound of formula (4) for TNFα; details: TNFα 50 nM, compound of formula (4) 10 nM, 5% DMSO; read-out: IC50 (inhibition of binding of the compound of formula (4) to TNFα)
# Experimental: The final concentrations of TNFα and the compound of formula (4) were 50 nM and 10 nM respectively in a total assay volume of 25 μl. Plates were read on an Analyst HT reader. An IC50 was calculated using xlfit (4 parameter logistic model) in Activity Base.
# C87 was preincubated with TNFα for 1 hour prior to assay against the fluorescent compound (probe). Competition with the fluorescent compound either directly (binding at the same site) or indirectly (disrupting TNF) is detected by a reduction in FP.
Structure (SMILES),EC50 [1],IC50 (TNFα [2]),off-rate from h-TNFα (h-TNFα),cross species monomer subunit exchange (h-TNFα),IC50 (TNFα [3])
"Cc1ccc(C)c(Cn2c(C(O)c3ccncc3)nc3ccccc32)c1 (stereo not shown) [Compound (1), [1-(2,5-Dimethylbenzyl)-1H-benzimidazol-2-yl](pyridin-4-yl)methanol]",298 nM,306 nM,no measurable off-rate,no cross species monomer subunit exchange was observed,167 nM
"Cc1ccc(C)c(Cn2c(C(O)c3ccncc3)nc3ccc(-c4cnn(C)c4)cc32)c1 (stereo not shown) [Compound (2), [1-(2,5-Dimethylbenzyl)-6-(1-methyl-1H-pyrazol-4-yl)-1H-benzimidazol-2-yl](pyridin-4-yl)methanol]",280 nM,125 nM,no measurable off-rate,No monomer subunit exchange was observed,102 nM
